Experimental data reported in patent US20220133688A1, “MACROCYCLIC LACTONE ANTHELMINTICS AGAINST NEMATODES” (Bayer Animal Health GmbH, priority 2019, published 2022).
Several values for one entry are separate records, joined by “and”; a condition that tells them apart may be missing. Equal entries are not always repeated. Where two headings read alike, the source gives them in different places.

Tests used:
[1] = test system: D. immitis Mf, Missouri isolate; assay: Cell attachment assay (canine PMN or PBMC attachment to Mf), Missouri isolate; type: cell-based, Dirofilaria immitis
[2] = test system: D. immitis Mf, Georgia-2 isolate; assay: Cell attachment assay (canine PMN or PBMC attachment to Mf), Georgia-2 isolate; type: cell-based, Dirofilaria immitis

Row | SMILES | Percentage (±SEM) of Mf with cells attached [1] | lowest drug concentration at which a statistically significant increase (p = <0.05) in cell attachment was observed compared to the no-drug control [1] | Percentage (±SEM) of Mf with cells attached [2] | lowest drug concentration at which a statistically significant increase (p = <0.05) in cell attachment was observed compared to the no-drug control [2] | Percentage (±SEM) of Mf with cells attached ([1]; PBMC, 1 μM drug, Missouri Mf) | lowest drug concentration at which a statistically significant increase (p = <0.05) in cell attachment was observed compared to the no-drug control ([1]; PBMC, 40 h, Missouri Mf, 2-way ANOVA) | Percentage (±SEM) of Mf with cells attached ([1]; PMN, 1 μM drug, Missouri Mf) | lowest drug concentration at which a statistically significant increase (p = <0.05) in cell attachment was observed compared to the no-drug control ([1]; PMN, 24 h, Missouri Mf, 2-way ANOVA) | Percentage (±SEM) of Mf with cells attached ([2]; PBMC, 1 μM drug, Georgia-2 Mf) | lowest drug concentration at which a statistically significant increase (p = <0.05) in cell attachment was observed compared to the no-drug control ([2]; PBMC, 40 h, Georgia-2 Mf, 2-way ANOVA) | Percentage (±SEM) of Mf with cells attached ([2]; PMN, 1 μM drug, Georgia-2 Mf) | lowest drug concentration at which a statistically significant increase (p = <0.05) in cell attachment was observed compared to the no-drug control ([2]; PMN, 24 h, Georgia-2 Mf, 2-way ANOVA)
1 | CC[C@H](C)[C@H]1O[C@]2(CC[C@@H]1C)C[C@@H]1C[C@@H](C/C=C(\C)[C@@H](O[C@H]3C[C@H](OC)[C@@H](O[C@H]4C[C@H](OC)[C@@H](O)[C@H](C)O4)[C@H](C)O3)[C@@H](C)/C=C/C=C3\CO[C@@H]4[C@H](O)C(C)=C[C@@H](C(=O)O1)[C@]34O)O2 [IVM, ivermectin] | 48 ± 6% and 60 ± 3% | 3 nM | 41 ± 6% and 71 ± 5% | 1 nM | – | – | – | – | – | – | – | –
2 | CO/N=C1\C[C@]2(C[C@@H]3C[C@@H](C/C=C(\C)C[C@@H](C)/C=C/C=C4\CO[C@@H]5[C@H](O)C(C)=C[C@@H](C(=O)O3)[C@]45O)O2)O[C@H](/C(C)=C/C(C)C)[C@H]1C [MOX, moxidectin] | – | – | – | – | 63 ± 5% | 1 nM | 65 ± 5% | 3 nM | 63 ± 5% | 1 nM | 54 ± 6% | 3 nM
